# Data from ChEMBL document CHEMBL4316626, “N-Acyl pyrazoles: Effective and tunable inhibitors of serine hydrolases” (Bioorg Med Chem, 2019).
# Experiment: Inhibition of recombinant rat FAAH deltaTM mutant expressed in Escherichia coli using 14C-labeled oleamide as substrate preincubated for 3 hrs followed by substrate addition and measured by TLC based Dixon-plot analysis
# Conditions: read-out: Ki(app)
row,SMILES,Ki [nM]
1,O=C(Cc1ccc(-c2ccccc2)cc1)n1cccn1,> 5000
2,CN(CCN(C)C(=O)n1cc(C#N)cn1)Cc1ccc(Oc2ccccc2)cc1,2
3,O=C(N1CCCN(Cc2ccc(Oc3ccccc3)cc2)CC1)n1cccn1,9.3
4,N#Cc1cnn(C(=O)OCCCc2ccccc2)c1,3500
5,N#Cc1cnn(C(=O)Oc2ccc3ccccc3c2)c1,> 5000
6,O=C(CCCCCCc1ccccc1)n1cccn1,> 5000
7,O=C(N1CCN(Cc2ccc3ccccc3c2)CC1)n1cc(Br)cn1,0.47
8,N#Cc1cnn(C(=O)OCCCCCc2ccccc2)c1,4200
9,O=C(OCc1ccc2ccccc2c1)n1cccn1,> 5000
10,Cc1cnn(C(=O)NCc2ccc(-c3ccccc3)cc2)c1,> 5000
11,Cc1cnn(C(=O)N(C)CCN(C)Cc2ccc(Oc3ccccc3)cc2)c1,55
12,CN(CCN(C)C(=O)n1cc(C#N)cn1)C(=O)OC(C)(C)C,16
13,N#Cc1cnn(C(=O)N2CCCN(Cc3cccc(Oc4ccccc4)c3)CC2)c1,0.23
14,N#Cc1cnn(C(=O)Cc2ccc(-c3ccccc3)cc2)c1,> 5000
15,O=C(NCc1ccc(-c2ccccc2)cc1)n1cccn1,> 5000
16,Cc1cnn(C(=O)CCCCc2ccccc2)c1,> 5000
17,Cc1cnn(C(=O)N2CCCN(Cc3ccc(Oc4ccccc4)cc3)CC2)c1,110
18,Cc1cnn(C(=O)OCc2ccc3ccccc3c2)c1,> 5000
19,COC(=O)c1cnn(C(=O)N2CCN(Cc3ccc4ccccc4c3)CC2)c1,0.36
20,Cc1cnn(C(=O)N(C)CCN(C)C(=O)OC(C)(C)C)c1,710
21,N#Cc1cnn(C(=O)Cc2ccc3ccccc3c2)c1,> 5000
22,CN(CCN(C)C(=O)n1cccn1)Cc1cccc(Oc2ccccc2)c1,5.7

row,SMILES,Ki [nM]
1,Cc1cnn(C(=O)OCc2ccc(-c3ccccc3)cc2)c1,> 5000
2,O=C(OCc1ccc(Oc2ccccc2)cc1)n1cccn1,460
3,O=C(Cc1ccc2ccccc2c1)n1cccn1,> 5000
4,Cc1ccc(CNC(=O)n2cc(C#N)cn2)cc1,> 5000
5,N#Cc1cnn(C(=O)N2CCN(Cc3ccc(Oc4ccccc4)cc3)CC2)c1,0.1
6,O=C(N1CCN(Cc2ccccc2)CC1)n1cccn1,180
7,O=C(N1CCN(Cc2ccc3ccccc3c2)CC1)n1cc(I)cn1,0.29
8,Cc1ccc(CNC(=O)n2cc(C)cn2)cc1,> 5000
9,Cc1cnn(C(=O)Nc2ccc3ccccc3c2)c1,> 5000
10,O=C(OCCCCCc1ccccc1)n1cccn1,> 5000
11,Cc1cnn(C(=O)CCCCCCc2ccccc2)c1,> 5000
12,O=C(NCc1ccc2ccccc2c1)n1cccn1,> 5000
13,Cc1cnn(C(=O)OCCCCCc2ccccc2)c1,> 5000
14,N#Cc1cnn(C(=O)N2CCN(Cc3cccc(OCc4ccccc4)c3)CC2)c1,0.15
15,Cc1cnn(C(=O)N(C)CCN(C)Cc2cccc(Oc3ccccc3)c2)c1,20
16,N#Cc1cnn(C(=O)OCCCCc2ccccc2)c1,210
17,Cc1ccc(COC(=O)n2cc(C#N)cn2)cc1,> 5000
18,O=C(N1CCN(Cc2cccc(Oc3ccccc3)c2)CC1)n1cccn1,6.1
19,Cc1cnn(C(=O)N2CCN(Cc3cccc(Oc4ccccc4)c3)CC2)c1,45
20,Cc1cnn(C(=O)N2CCN(C(=O)OC(C)(C)C)CC2)c1,850
21,N#Cc1cnn(C(=O)N2CCN(Cc3ccc(-c4ccccc4)cc3)CC2)c1,0.19
22,N#Cc1cnn(C(=O)NCc2ccc3ccccc3c2)c1,> 5000

row,SMILES,Ki [nM]
1,Cc1cnn(C(=O)OCCCCc2ccccc2)c1,> 5000
2,Cc1ccc(CNC(=O)n2cccn2)cc1,> 5000
3,N#Cc1cnn(C(=O)N2CCN(Cc3ccccc3)CC2)c1,75
4,N#Cc1cnn(C(=O)OCc2ccc(-c3ccccc3)cc2)c1,> 5000
5,O=C(Nc1ccc2ccccc2c1)n1cccn1,> 5000
6,Cc1cnn(C(=O)N2CCCN(Cc3cccc(Oc4ccccc4)c3)CC2)c1,75
7,Cc1cnn(C(=O)OCc2ccc(OCc3ccccc3)cc2)c1,1260
8,N#Cc1cnn(C(=O)NCCCCCc2ccccc2)c1,18
9,Cc1cnn(C(=O)N2CCN(Cc3ccccc3)CC2)c1,250
10,O=C(Oc1ccc2ccccc2c1)n1cccn1,> 5000
11,N#Cc1cnn(C(=O)CCCCCc2ccccc2)c1,> 5000
12,N#Cc1cnn(C(=O)NCCCc2ccccc2)c1,340
13,N#Cc1cnn(C(=O)N2CCCN(Cc3cccc(OCc4ccccc4)c3)CC2)c1,0.7
14,CC(C)(C)OC(=O)N1CCN(C(=O)n2cccn2)CC1,340
15,Cc1cnn(C(=O)NCCCCc2ccccc2)c1,550
16,CC(C)(C)OC(=O)N1CCN(C(=O)n2cc(C#N)cn2)CC1,55
17,Cc1cnn(C(=O)N2CCN(Cc3ccc(-c4ccccc4)cc3)CC2)c1,170
18,Cc1cnn(C(=O)NCc2ccc3ccccc3c2)c1,> 5000
19,O=C(OCc1ccc(OCc2ccccc2)cc1)n1cccn1,260
20,Cc1cnn(C(=O)Cc2ccc3ccccc3c2)c1,5000
21,O=C(N1CCN(Cc2cccc(OCc3ccccc3)c2)CC1)n1cccn1,5.8
22,N#Cc1cnn(C(=O)CCCCCCc2ccccc2)c1,> 5000

row,SMILES,Ki [nM]
1,O=C(N1CCN(Cc2ccc(Oc3ccccc3)cc2)CC1)n1cccn1,9.2
2,Cc1ccc(COC(=O)n2cc(C)cn2)cc1,> 5000
3,N#Cc1cnn(C(=O)NCc2ccc(-c3ccccc3)cc2)c1,> 5000
4,Cc1cnn(C(=O)N2CCCN(Cc3cccc(OCc4ccccc4)c3)CC2)c1,210
5,O=C(N1CCN(Cc2ccc(-c3ccccc3)cc2)CC1)n1cccn1,12
6,CC(C)(C)OC(=O)N1CCCN(C(=O)n2cccn2)CC1,620
7,Cc1ccc(COC(=O)n2cccn2)cc1,> 5000
8,N#Cc1cnn(C(=O)CCCCc2ccccc2)c1,> 5000
9,O=C(NCCCc1ccccc1)n1cccn1,980
10,Cc1cnn(C(=O)Cc2ccc(-c3ccccc3)cc2)c1,> 5000
11,N#Cc1cnn(C(=O)NCCCCc2ccccc2)c1,18
12,CC(C)(C)OC(=O)N1CCCN(C(=O)n2cc(C#N)cn2)CC1,50
13,O=C(CCCCc1ccccc1)n1cccn1,> 5000
14,N#Cc1cnn(C(=O)OCc2ccc(Oc3ccccc3)cc2)c1,60
15,CN(CCN(C)C(=O)n1cccn1)C(=O)OC(C)(C)C,80
16,N#Cc1cnn(C(=O)N2CCCN(Cc3ccc(Oc4ccccc4)cc3)CC2)c1,1
17,Cc1cnn(C(=O)NCCCCCc2ccccc2)c1,560
18,O=C(OCCCCc1ccccc1)n1cccn1,710
19,O=C(NCc1ccc(Oc2ccccc2)cc1)n1cccn1,180
20,N#Cc1cnn(C(=O)OCc2ccc3ccccc3c2)c1,> 5000
21,Cc1cnn(C(=O)N2CCN(Cc3cccc(OCc4ccccc4)c3)CC2)c1,25
22,Cc1cnn(C(=O)Oc2ccc3ccccc3c2)c1,> 5000

row,SMILES,Ki [nM]
1,Cc1cnn(C(=O)OCc2ccc(Oc3ccccc3)cc2)c1,580
2,N#Cc1cnn(C(=O)OCc2ccc(OCc3ccccc3)cc2)c1,145
3,N#Cc1cnn(C(=O)Nc2ccc3ccccc3c2)c1,> 5000
4,O=C(N1CCCN(Cc2cccc(Oc3ccccc3)c2)CC1)n1cccn1,6.3
5,Cc1cnn(C(=O)N2CCCN(C(=O)OC(C)(C)C)CC2)c1,2900
6,Cc1cnn(C(=O)CCCCCc2ccccc2)c1,> 5000
7,O=C(N1CCCN(Cc2cccc(OCc3ccccc3)c2)CC1)n1cccn1,12
8,CN(CCN(C)C(=O)n1cccn1)Cc1ccc(Oc2ccccc2)cc1,10
9,O=C(CCCCCc1ccccc1)n1cccn1,> 5000
10,Cc1cnn(C(=O)N2CCN(Cc3ccc(Oc4ccccc4)cc3)CC2)c1,210
11,Cc1cnn(C(=O)OCCCc2ccccc2)c1,> 5000
12,O=C(NCCCCCc1ccccc1)n1cccn1,280
13,O=C(OCc1ccc(-c2ccccc2)cc1)n1cccn1,> 5000
14,N#Cc1cnn(C(=O)NCc2ccc(Oc3ccccc3)cc2)c1,9.8
15,O=C(NCCCCc1ccccc1)n1cccn1,290
16,Cc1cnn(C(=O)NCCCc2ccccc2)c1,3000
17,CN(CCN(C)C(=O)n1cc(C#N)cn1)Cc1cccc(Oc2ccccc2)c1,1.2
18,O=C(OCCCc1ccccc1)n1cccn1,> 5000
19,Cc1cnn(C(=O)NCc2ccc(Oc3ccccc3)cc2)c1,290
20,N#Cc1cnn(C(=O)N2CCN(Cc3cccc(Oc4ccccc4)c3)CC2)c1,0.19
